{"source": "patent US4570013A", "about": "“Biphenylylalkanoic acid derivatives, methods of preparation and pharmaceutical compositions therefrom” (Dr. L. Zambeletti S.p.A., priority 1983, dated 1986)", "key": {"[1]": {"system": "oedema induced in the rats' paw by intradermic injection of carrageenin", "experiment": "carrageenin-induced paw oedema (method of Winter), antiinflammatory activity", "type": "in vivo", "conditions": "Rattus norvegicus, po, orally, read-out: effective dose ED50, antiedemigenic (antiinflammatory) activity"}, "[2]": {"system": "writhings caused by 2-phenylparabenzoquinone in mice", "experiment": "writhing test (method of Siegmund), 2-phenylparabenzoquinone, analgesic activity", "type": "in vivo, Swiss mice", "conditions": "for Contorsions % (change vs controls) / No. Contorsions: orally at ED50: biphenylylacetic acid 12, Ia 32 mg/kg", "from_the_text": "The analgesic activity has been studied according to the method described by Siegmund (E. Siegmund et al, Proc. Soc. Exptl. Biol. Med., 95, 729 (1957)), according to which the algogenic stimulus consists of the intraperitoneal injection of 2-phenylparabenzoquinone and the algesia manifests itself in repeated abdominal contractions with an extension of the rear limbs and contorsions of the body (\"writhing test\")."}, "[3]": {"system": "protective activity in the hot plate test", "experiment": "hot plate test, central analgesic activity", "type": "in vivo", "conditions": "up to 200 mg/kg^-1 orally, mice"}, "[4]": {"system": "Hyperthermia caused by brewer's yeast in rats", "experiment": "brewer's yeast hyperthermia (method of C. Winter), antipyretic activity", "type": "in vivo", "from_the_text": "The antipyretic activity has been studied according to the method of C. Winter, Toxicol. and Appl. Pharmacol., 5, 247 (1963), in rats, by determining the ability of the substance to reduce the increase of body temperature caused by the subcutaneous administration of brewer's yeast."}, "[5]": {"system": "platelet aggregation induced by arachidonic acid", "experiment": "platelet aggregation induced by arachidonic acid in vitro (method of Born)", "type": "cell-based, guinea pigs", "conditions": "guinea pig platelet-enriched plasma", "protocol": "The activity of compound Ia on the metabolism of arachidonic acid has been studied in virto according to the method described by B. Fjalland, J. Pharm. Pharmacol., 26, 448 (1974). In these tests the compound being examined is capable of inhibiting the synthesis of prostaglandin and thromboxane caused by arachidonic acid (AA) incubated with lung tissue of guinea pigs (IC50 =0.05 mM). The activity on the platelet aggregation induced by arachidonic acid has been determined in vitro on plasma enriched with platelets of guinea pigs according to the method described by G. V. R. Born, Nature 194, 927 (1962)."}, "[6]": {"system": "aggregating action of arachidonic acid", "experiment": "ex vivo study of aggregating action of arachidonic acid after oral administration", "type": "in vivo", "conditions": "guinea pigs, oral dose equal to antiinflammatory ED50"}, "[7]": {"system": "Salmonella thyphimurium TA 1535; TA 1538; TA 100; TA 98", "experiment": "Ames test, mutagenic action", "type": "cell-based", "conditions": "with and without metabolic activation, up to 5000 μg per plate"}, "[8]": {"experiment": "acute toxicity (DL50)", "conditions": "mouse, in vivo", "from_the_text": "Finally, the following values of DL50 have been determined in mice for compound Ia: […]"}, "[9]": {"experiment": "in vivo", "conditions": "rat, po"}, "[10]": {"experiment": "gastrolesive action after single doses", "conditions": "rat, in vivo"}}, "note": "pIC50: −log10 of the molar value. Like-named read-outs stand apart in the source and are kept apart here."}
{"compound": "COc1ccccc1OCC(O)COC(=O)Cc1ccc(-c2ccccc2)cc1", "note": "(centres unmarked) [Compound Ia, 1-Biphenylylacetoxy-3-(2-methoxyphenoxy)-propan-2-ol]", "values": [{"measurement": "ED50", "setting": "[1]", "result": 22.5, "unit": "mg/kg"}, {"measurement": "onset of analgesic activity after administration", "setting": "[2]; 32 mg/kg orally, mice", "result": 15, "unit": "min"}, {"measurement": "Contorsions % (change vs controls)", "setting": "[2]; 5 minutes", "result": -28, "unit": "%"}, {"measurement": "No. Contorsions", "setting": "[2]; 5 minutes", "result": "33.1 ± 4.1"}, {"measurement": "Contorsions % (change vs controls)", "setting": "[2]; 15 minutes", "result": -33, "unit": "%"}, {"measurement": "No. Contorsions", "setting": "[2]; 15 minutes", "result": "35.1 ± 3.4"}, {"measurement": "Contorsions % (change vs controls)", "setting": "[2]; 30 minutes", "result": -54, "unit": "%"}, {"measurement": "No. Contorsions", "setting": "[2]; 30 minutes", "result": "22.7 ± 2.4"}, {"measurement": "Contorsions % (change vs controls)", "setting": "[2]; 1 hour", "result": -47, "unit": "%"}, {"measurement": "No. Contorsions", "setting": "[2]; 1 hour", "result": "26.8 ± 3.3"}, {"measurement": "Contorsions % (change vs controls)", "setting": "[2]; 2 hours", "result": -46, "unit": "%"}, {"measurement": "No. Contorsions", "setting": "[2]; 2 hours", "result": "25.4 ± 3.8"}, {"measurement": "Contorsions % (change vs controls)", "setting": "[2]; 3 hours", "result": -44, "unit": "%"}, {"measurement": "No. Contorsions", "setting": "[2]; 3 hours", "result": "27.6 ± 3.4"}, {"measurement": "Contorsions % (change vs controls)", "setting": "[2]; 4 hours", "result": -31, "unit": "%"}, {"measurement": "No. Contorsions", "setting": "[2]; 4 hours", "result": "33.5 ± 3.6"}, {"measurement": "Contorsions % (change vs controls)", "setting": "[2]; 5 hours", "result": -1, "unit": "%"}, {"measurement": "No. Contorsions", "setting": "[2]; 5 hours", "result": "45.0 ± 3.2"}, {"measurement": "ED50", "setting": "[2]; Mus musculus, po, mice, orally, read-out: ED50, analgesic activity (writhing test)", "result": 32, "unit": "mg/kg"}, {"measurement": "protective activity in the hot plate test (central analgesic activity)", "setting": "[3]", "result": "has not shown any protective activity"}, {"measurement": "Temperature after administration of the substance, t", "setting": "[4]; 6 mg/kg os, 1 h", "result": "38.01±0.07", "unit": "°C"}, {"measurement": "Temperature change Δt after administration of the substance", "setting": "[4]; 6 mg/kg os, 1 h", "result": -0.63, "unit": "°C"}, {"measurement": "Temperature after administration of the substance, t", "setting": "[4]; 6 mg/kg os, 2 h", "result": "37.71±0.09", "unit": "°C"}, {"measurement": "Temperature change Δt after administration of the substance", "setting": "[4]; 6 mg/kg os, 2 h", "result": -0.75, "unit": "°C"}, {"measurement": "P/S, ratio of protected animals with respect to total screened animals", "setting": "[4]; 6 mg/kg os, 3 h", "result": "1/10"}, {"measurement": "Temperature after administration of the substance, t", "setting": "[4]; 6 mg/kg os, 3 h", "result": 37.70, "unit": "°C"}, {"measurement": "Temperature change Δt after administration of the substance", "setting": "[4]; 6 mg/kg os, 3 h", "result": -0.69, "unit": "°C"}, {"measurement": "Temperature after administration of the substance, t", "setting": "[4]; 6 mg/kg os, 4 h", "result": "37.85±0.14", "unit": "°C"}, {"measurement": "Temperature change Δt after administration of the substance", "setting": "[4]; 6 mg/kg os, 4 h", "result": -0.45, "unit": "°C"}, {"measurement": "Temperature after administration of the substance, t", "setting": "[4]; 6 mg/kg os, 5 h", "result": "38.07±0.15", "unit": "°C"}, {"measurement": "Temperature change Δt after administration of the substance", "setting": "[4]; 6 mg/kg os, 5 h", "result": -0.19, "unit": "°C"}, {"measurement": "Temperature after administration of the substance, t", "setting": "[4]; 6 mg/kg os, 6 h", "result": 38.10, "unit": "°C"}, {"measurement": "Temperature change Δt after administration of the substance", "setting": "[4]; 6 mg/kg os, 6 h", "result": -0.14, "unit": "°C"}, {"measurement": "Temperature after administration of the substance, t", "setting": "[4]; 12 mg/kg os, 1 h", "result": "37.81±0.06", "unit": "°C"}, {"measurement": "Temperature change Δt after administration of the substance", "setting": "[4]; 12 mg/kg os, 1 h", "result": -0.83, "unit": "°C"}, {"measurement": "Temperature after administration of the substance, t", "setting": "[4]; 12 mg/kg os, 2 h", "result": "37.40±0.05", "unit": "°C"}, {"measurement": "Temperature change Δt after administration of the substance", "setting": "[4]; 12 mg/kg os, 2 h", "result": -1.06, "unit": "°C"}, {"measurement": "P/S, ratio of protected animals with respect to total screened animals", "setting": "[4]; 12 mg/kg os, 3 h", "result": "4/10"}, {"measurement": "Temperature after administration of the substance, t", "setting": "[4]; 12 mg/kg os, 3 h", "result": "37.32±0.08", "unit": "°C"}, {"measurement": "Temperature change Δt after administration of the substance", "setting": "[4]; 12 mg/kg os, 3 h", "result": -1.07, "unit": "°C"}, {"measurement": "Temperature after administration of the substance, t", "setting": "[4]; 12 mg/kg os, 4 h", "result": "37.41±0.07", "unit": "°C"}, {"measurement": "Temperature change Δt after administration of the substance", "setting": "[4]; 12 mg/kg os, 4 h", "result": -0.89, "unit": "°C"}, {"measurement": "Temperature after administration of the substance, t", "setting": "[4]; 12 mg/kg os, 5 h", "result": "37.66±0.09", "unit": "°C"}, {"measurement": "Temperature change Δt after administration of the substance", "setting": "[4]; 12 mg/kg os, 5 h", "result": -0.50, "unit": "°C"}, {"measurement": "Temperature after administration of the substance, t", "setting": "[4]; 12 mg/kg os, 6 h", "result": "37.88±0.07", "unit": "°C"}, {"measurement": "Temperature change Δt after administration of the substance", "setting": "[4]; 12 mg/kg os, 6 h", "result": -0.36, "unit": "°C"}, {"measurement": "Temperature after administration of the substance, t", "setting": "[4]; 24 mg/kg os, 1 h", "result": "37.66±0.05", "unit": "°C"}, {"measurement": "Temperature change Δt after administration of the substance", "setting": "[4]; 24 mg/kg os, 1 h", "result": -0.98, "unit": "°C"}, {"measurement": "Temperature after administration of the substance, t", "setting": "[4]; 24 mg/kg os, 2 h", "result": "37.31±0.05", "unit": "°C"}, {"measurement": "Temperature change Δt after administration of the substance", "setting": "[4]; 24 mg/kg os, 2 h", "result": -1.15, "unit": "°C"}, {"measurement": "P/S, ratio of protected animals with respect to total screened animals", "setting": "[4]; 24 mg/kg os, 3 h", "result": "8/10"}, {"measurement": "Temperature after administration of the substance, t", "setting": "[4]; 24 mg/kg os, 3 h", "result": "37.13±0.06", "unit": "°C"}, {"measurement": "Temperature change Δt after administration of the substance", "setting": "[4]; 24 mg/kg os, 3 h", "result": -1.26, "unit": "°C"}, {"measurement": "Temperature after administration of the substance, t", "setting": "[4]; 24 mg/kg os, 4 h", "result": "37.16±0.06", "unit": "°C"}, {"measurement": "Temperature change Δt after administration of the substance", "setting": "[4]; 24 mg/kg os, 4 h", "result": -1.14, "unit": "°C"}, {"measurement": "Temperature after administration of the substance, t", "setting": "[4]; 24 mg/kg os, 5 h", "result": "37.34±0.05", "unit": "°C"}, {"measurement": "Temperature change Δt after administration of the substance", "setting": "[4]; 24 mg/kg os, 5 h", "result": -0.92, "unit": "°C"}, {"measurement": "Temperature after administration of the substance, t", "setting": "[4]; 24 mg/kg os, 6 h", "result": "37.55±0.06", "unit": "°C"}, {"measurement": "Temperature change Δt after administration of the substance", "setting": "[4]; 24 mg/kg os, 6 h", "result": -0.69, "unit": "°C"}, {"measurement": "ED50", "setting": "[4]; Rattus norvegicus, po, rats, orally, read-out: ED50, antipyretic activity", "result": 14, "unit": "mg/kg"}, {"measurement": "duration of antipyretic activity", "setting": "[4]; rats, orally", "result": "continues after the sixth hour"}, {"measurement": "onset of antipyretic activity after the treatment", "setting": "[4]; rats, orally", "result": "within one hour after the treatment"}, {"measurement": "pIC50", "setting": "[5]; Cavia porcellus, read-out: IC50, anti aggregating activity", "result": 3.91}, {"measurement": "anti aggregating activity, concentration dependence", "setting": "[5]", "result": "proportional to the concentration used"}, {"measurement": "duration of decrease in aggregating action of arachidonic acid", "setting": "[6]", "result": "remains up to the fifth hour"}, {"measurement": "start of decrease in aggregating action of arachidonic acid after administration", "setting": "[6]", "result": "starts three hours after the administration"}, {"measurement": "mutagenic action (Ames test)", "setting": "[7]", "result": "has not shown any mutagenic action"}, {"measurement": "LD50", "setting": "[8]; ip, read-out: DL50 ip", "result": 260, "unit": "mg/kg"}, {"measurement": "LD50", "setting": "[8]; po, read-out: DL50 orally", "result": 3330, "unit": "mg/kg"}, {"measurement": "TD50", "setting": "[9]", "result": 61.7, "unit": "mg/kg"}, {"measurement": "selectivity ratio", "setting": "[10]", "result": "2 to 4"}]}
